The target in experiment [1] is T1, N-acylethanolamine-hydrolyzing acid amidase (Homo sapiens) (UniProt Q02083).
T1 sequence (whole entry): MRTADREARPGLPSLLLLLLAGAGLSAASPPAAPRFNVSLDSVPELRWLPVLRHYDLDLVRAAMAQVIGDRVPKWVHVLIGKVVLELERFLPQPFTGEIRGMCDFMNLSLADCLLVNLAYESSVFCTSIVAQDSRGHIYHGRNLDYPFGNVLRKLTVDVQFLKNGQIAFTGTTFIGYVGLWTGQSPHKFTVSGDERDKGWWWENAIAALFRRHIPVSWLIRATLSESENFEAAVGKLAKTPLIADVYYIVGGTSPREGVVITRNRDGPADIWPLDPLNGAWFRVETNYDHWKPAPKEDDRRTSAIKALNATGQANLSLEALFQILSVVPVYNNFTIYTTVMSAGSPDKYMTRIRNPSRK
Kind of experiment: Binding affinity to human recombinant His6-tagged NAAA expressed in HEK293 cells assessed as formation of peptide adduct by MS/MS […] analysis. The format is cell-based.

For experiment [2], the target named is T2, N-acylethanolamine-hydrolyzing acid amidase (Homo sapiens, UniProt Q02083).
T2 sequence (Q02083 whole entry): T1 sequence (whole entry)
The experiment can be described thus: Inhibition of human recombinant His6-tagged NAAA expressed in HEK293 cells using 10-cis-heptadecenoylethanolamide as substrate after 30 mins by UPLC/MS analysis.

For experiment [3], the target named is T3, Acid ceramidase (Homo sapiens) (UniProt Q13510).
T3 sequence (whole entry): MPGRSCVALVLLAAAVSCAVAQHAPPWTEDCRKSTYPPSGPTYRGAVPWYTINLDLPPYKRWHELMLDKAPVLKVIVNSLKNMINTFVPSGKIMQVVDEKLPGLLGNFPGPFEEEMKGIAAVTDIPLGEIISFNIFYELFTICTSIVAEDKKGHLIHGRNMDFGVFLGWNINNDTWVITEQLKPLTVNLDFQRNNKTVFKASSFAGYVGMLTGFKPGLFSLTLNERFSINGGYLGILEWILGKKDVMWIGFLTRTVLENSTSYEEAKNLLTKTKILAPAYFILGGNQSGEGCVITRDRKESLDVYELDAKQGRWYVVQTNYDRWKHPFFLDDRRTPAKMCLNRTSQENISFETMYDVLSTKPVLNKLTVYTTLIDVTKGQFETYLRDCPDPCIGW
The experiment can be described thus: Inhibition of human acid ceramidase expressed in HEK293 cells up to 30 uM using N-lauroyl- ceramide substrate by UPLC/MS analysis. Type of experiment: cell-based.

Experiment [4] has as its target T1, N-acylethanolamine-hydrolyzing acid amidase (Homo sapiens). Particulars: HEK293, 10 to 30 nM.
For experiment [5], the target named is T4, Fatty-acid amide hydrolase 1 (Rattus norvegicus) (UniProt P97612).
T4 sequence (whole entry): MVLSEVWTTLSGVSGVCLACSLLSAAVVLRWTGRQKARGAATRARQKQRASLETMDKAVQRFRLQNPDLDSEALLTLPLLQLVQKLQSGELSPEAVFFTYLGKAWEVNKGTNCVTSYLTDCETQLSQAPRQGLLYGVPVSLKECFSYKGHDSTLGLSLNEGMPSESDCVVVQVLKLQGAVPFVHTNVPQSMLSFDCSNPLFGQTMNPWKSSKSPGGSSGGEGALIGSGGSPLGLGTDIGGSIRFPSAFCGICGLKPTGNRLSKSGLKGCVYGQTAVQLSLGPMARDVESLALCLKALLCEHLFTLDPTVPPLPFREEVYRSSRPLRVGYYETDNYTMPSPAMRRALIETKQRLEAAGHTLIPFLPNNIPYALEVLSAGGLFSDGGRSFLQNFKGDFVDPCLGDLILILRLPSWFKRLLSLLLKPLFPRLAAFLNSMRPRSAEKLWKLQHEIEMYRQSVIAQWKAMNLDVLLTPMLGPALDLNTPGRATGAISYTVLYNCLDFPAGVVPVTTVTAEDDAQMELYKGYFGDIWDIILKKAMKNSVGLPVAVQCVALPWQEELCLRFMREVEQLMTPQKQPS
The experiment can be described thus: Inhibition of FAAH in rat brain homogenate using [3H]anandamide as substrate up to 30 uM after 30 mins by liquid scintillation counting. The format is tissue-based.

Experiment [6] concerns the target T1, N-acylethanolamine-hydrolyzing acid amidase (Homo sapiens). Particulars: HEK293, 100 nM.

The structures appear in SMILES notation. Calls of active or inactive are those of the source. The rule behind the calls is not given here.

The values below come from ChEMBL document CHEMBL2069166, “β-Lactones Inhibit N-acylethanolamine Acid Amidase by S-Acylation of the Catalytic N-Terminal Cysteine” (ACS Med Chem Lett, 2012).

As to `C[C@@H]1OC(=O)[C@@H]1NC(=O)CCCCCCc1ccccc1`, the result in experiment [1] was Active. In experiment [2], the IC50 – broadly, the concentration at which inhibition is half-maximal – came out at 314 nM.
Turning to `C[C@@H]1OC(=O)[C@@H]1NC(=O)OCCCCCc1ccccc1`, the inhibition result in experiment [3] and in experiment [5] was “inactive” each time. The inhibition result in experiment [4] and in experiment [6] was “Active” each time. Also, the IC50 in experiment [2] was determined as 7.3 nM.
